From patent US8202862B2, “Substituted piperidines” (Bayer Intellectual Property GmbH, priority 2009, dated 2012) come the findings set out here.

The target in assay [1] is T1, human protease activated receptor 1 (PAR1) (Homo sapiens, UniProt P25116).
T1 construct: the cell stably expresses the endogenous human PAR1 receptor; endogenous in cells; host or cells: recombinant HEK293-derived cell line; only the mitochondrial aequorin is recombinant
T1 sequence (P25116 22-425): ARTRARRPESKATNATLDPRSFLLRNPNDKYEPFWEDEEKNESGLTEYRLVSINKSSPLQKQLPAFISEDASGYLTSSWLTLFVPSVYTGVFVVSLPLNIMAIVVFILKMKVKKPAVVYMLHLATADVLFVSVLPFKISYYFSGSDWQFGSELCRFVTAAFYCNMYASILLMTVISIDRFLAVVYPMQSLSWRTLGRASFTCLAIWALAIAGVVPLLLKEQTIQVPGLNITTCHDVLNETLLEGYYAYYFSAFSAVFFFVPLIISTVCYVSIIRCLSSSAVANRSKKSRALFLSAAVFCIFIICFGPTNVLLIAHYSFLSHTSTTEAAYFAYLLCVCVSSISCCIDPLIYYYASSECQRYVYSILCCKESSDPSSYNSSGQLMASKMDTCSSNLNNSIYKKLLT
The assay is described as follows: Cellular functional in vitro test (PAR1 test cell, aequorin luminescence). The format is cell-based. Particulars: HEK293-derived PAR1 test cell; PAR1 agonist at EC50; calcium/aequorin luminescence. The source says: Cellular Functional in vitro Test
A recombinant cell line is used to identify […] of the human protease activated receptor 1 (PAR1) and to quantify the activity of the substances described herein. The cell is originally derived from a human embryonal kidney cell (HEK293; ATCC: American Type Culture Collection, Manassas, Va. 20108, U.S.A.). The test cell line constitutively expresses a modified form of the calcium-sensitive photoprotein aequorin which, after reconstitution with the cofactor coelenterazine, emits light when the free calcium concentration in the inner mitochondrial compartment is increased (Rizzuto R, Simpson A W, Brini M, Pozzan T.; Nature 1992, 358, 325-327). Additionally, the cell stably expresses the endogenous human PAR1 receptor and the endogenous purinergic receptor P2Y2. The resulting PAR1 test cell responds to stimulation of the endogenous PAR1 or P2Y2 receptor with an intracellular release of calcium ions, which can be quantified through the resulting aequorin luminescence with a suitable luminometer (Milligan G, Marshall F, Rees S, Trends in Pharmacological Sciences 1996, 17, 235-237).
For the testing of the substance specificity, the effect thereof after activation of the endogenous PAR1 receptor is compared with the effect after activation of the endogenous purinergic P2Y2 receptor which utilizes the same intracellular signal path.
Test procedure: The cells are plated out two days (48 hours) before the test in culture medium (DMEM F12, supplemented with 10% FCS, 2 mM glutamine, 20 mM HEPES, 1.4 mM pyruvate, 0.1 mg/ml gentamycin, 0.15% sodium bicarbonate; BioWhittaker Cat. # BE04-687Q; B-4800 Verviers, Belgium) in 384-well microtitre plates and kept in a cell incubator (96% atmospheric humidity, 5% v/v CO2, 37° C.). On the day of the test, the culture medium is replaced by a Tyrode's solution (in mM: 140 sodium chloride, 5 potassium chloride, 1 magnesium chloride, 2 calcium chloride, 20 glucose, 20 HEPES), which additionally contains the cofactor coelenterazine (25 μM) and glutathione (4 mM), and the microtitre plate is then incubated for a further 3-4 hours. The test substances are then pipetted onto the microtitre plate, and 5 minutes after the transfer of the test substances into the wells of the microtitre plate the plate is transferred into the luminometer, a PAR1 agonist concentration which corresponds to EC50 is added and the resulting light signal is immediately measured in the luminometer. To distinguish an antagonist substance action from a toxic action, the endogenous purinergic receptor is immediately subsequently activated with agonist (ATP, final concentration 10 μM) and the resulting light signal is measured.

For the next assay, the system named is platelet-rich plasma. The assay is described as follows: Platelet aggregation in plasma (triggered by thrombin receptor agonist TRAP6, SFLLRN; turbidimetry according to Born). In kind it is cell-based. Particulars: 10 min, human platelet-rich plasma, 10 min at 37° C. As to the method:
1.c) Platelet Aggregation in Plasma
Platelet aggregation is determined using blood from healthy volunteers of both genders, who had not received any thrombocyte aggregation-influencing medication for the last ten days. The blood is taken up into monovettes (Sarstedt, Nümbrecht, Germany) which contain, as anticoagulant, sodium citrate 3.8% (1 part citrate+9 parts blood). To obtain platelet-rich plasma, the citrated whole blood is centrifuged at 140 g for 20 min.
For the aggregation measurements, aliquots of the platelet-rich plasma with increasing concentrations of test substance are incubated at 37° C. for 10 min. Subsequently, aggregation is triggered by addition of a thrombin receptor agonist (TRAP6, SFLLRN) in an aggregometer and determined at 37° C. by means of the turbidimetry method according to Born (Born, G. V. R., Cross M. J., The Aggregation of Blood Platelets; J. Physiol. 1963, 168, 178-195). The SFLLRN concentration leading to maximum aggregation is, if appropriate, determined individually for each donor.
To calculate the inhibitory effect, the maximum increase in light transmission (amplitude of the aggregation curve in %) is determined within 5 minutes after addition of the agonist in the presence and absence of test substance, and the inhibition is calculated. The inhibition curves are used to calculate the concentration which inhibits aggregation by 50%.

Broadly, the IC50 is the concentration that inhibits the measured activity by half. Regarding `CC(F)(F)c1ccc(C2CC(c3nc(C4CC4)no3)CN(C(=O)N3CCS(=O)(=O)CC3)C2)cc1` (single isomer, unassigned) [Example 54, {3-(3-Cyclopropyl-1,2,4-oxadiazol-5-yl)-5-[4-(1,1-difluoroethyl)phenyl]piperidin-1-yl}-(1,1-dioxidothiomorpholin-4-yl)methanone], in assay [1], the half-inhibitory concentration (IC50) was 4.3 nM. As to `CC(F)(F)c1ccc(C2CC(c3nc(C4CC4)no3)CN(C(=O)N3CC[S+]([O-])CC3)C2)cc1` (single isomer, unassigned) [Example 52, {3-(3-Cyclopropyl-1,2,4-oxadiazol-5-yl)-5-[4-(1,1-difluoroethyl)phenyl]piperidin-1-yl}-(1-oxido-thiomorpholin-4-yl)methanone], the IC50 was 0.58 nM in the assay on platelet-rich plasma and 4.7 nM in assay [1]. As for `CCc1ccc(C2CC(c3nc(C4CC4)no3)CN(C(=O)N3CCS(=O)(=O)CC3)C2)cc1` (single isomer, unassigned) [Example 15, [3-(3-Cyclopropyl-1,2,4-oxadiazol-5-yl)-5-(4-ethylphenyl)piperidin-1-yl](1,1-dioxidothiomorpholin-4-yl)methanone], in assay [1], the IC50 turned out to be 5.1 nM. With `COCCc1noc(C2CC(c3ccc(OC(F)(F)F)cc3)CN(C(=O)N3CCS(=O)(=O)CC3)C2)n1` (single isomer, unassigned) [Example 8, (1,1-Dioxidothiomorpholin-4-yl){3-[3-(2-methoxyethyl)-1,2,4-oxadiazol-5-yl]-5-[4-(trifluoromethoxy)phenyl]piperidin-1-yl}methanone], the 50% inhibitory concentration (IC50) worked out at 0.29 nM in the assay with platelet-rich plasma and 33 nM in assay [1].

With `CCOCCc1noc(C2CC(c3ccc(C(F)(F)F)cc3)CN(C(=O)N3CCS(=O)(=O)CC3)C2)n1` (single isomer, unassigned) [Example 31, (1,1-Dioxidothiomorpholin-4-yl){3-[3-(2-ethoxyethyl)-1,2,4-oxadiazol-5-yl]-5-[4-(trifluoromethyl)phenyl]piperidin-1-yl}methanone], the 50% inhibitory concentration (IC50) in assay [1] was found to be 32 nM. On to `COCCc1noc(C2CC(c3ccc(OC(F)(F)F)cc3)CN(C(=O)N3CC[S+]([O-])CC3)C2)n1` (racemic) [Example 1, {3-[3-(2-Methoxyethyl)-1,2,4-oxadiazol-5-yl]-5-[4-(trifluoromethoxy)phenyl]piperidin-1-yl}-(oxidothiomorpholin-4-yl)methanone], for which, in assay [1], the IC50 turned out to be 43 nM. For the molecule `O=C(N1CC[S+]([O-])CC1)N1CC(c2ccc(C(F)(F)F)cc2)CC(c2nc(C3CC3)no2)C1` (racemic) [Example 20, {3-(3-Cyclopropyl-1,2,4-oxadiazol-5-yl)-5-[4-(trifluoromethyl)phenyl]piperidin-1-yl}(1-oxidothio-morpholin-4-yl)methanone], in assay [1], the IC50 is 23 nM. For the molecule `CCc1ccc(C2CC(c3nc(CCOC)no3)CN(C(=O)N3CCS(=O)(=O)CC3)C2)cc1` (stereo not shown) [Example 13, (1,1-Dioxidothiomorpholin-4-yl){3-(4-ethylphenyl)-5-[3-(2-methoxyethyl)-1,2,4-oxadiazol-5-yl]-piperidin-1-yl}methanone], the IC50 with platelet-rich plasma came out at 0.17 nM.

With `COC1(c2noc(C3CC(c4ccc(CC(F)(F)F)cc4)CN(C(=O)N4CCS(=O)(=O)CC4)C3)n2)CC1` (racemic) [Example 61, (1,1-Dioxidothiomorpholin-4-yl){3-[3-(1-methoxycyclopropyl)-1,2,4-oxadiazol-5-yl]-5-[4-(2,2,2-trifluoroethyl)phenyl]piperidin-1-yl}methanone], the IC50 in assay [1] stood at 15.7 nM. Regarding `O=C(N1CCS(=O)(=O)CC1)N1CC(c2ccc(OC(F)(F)F)cc2)CC(c2nc(C3CC3)no2)C1` (single isomer, unassigned) [Example 10, {3-(3-Cyclopropyl-1,2,4-oxadiazol-5-yl)-5-[4-(trifluoromethoxy)phenyl]piperidin-1-yl}(1,1-dioxidothiomorpholin-4-yl)methanone], the concentration for half-maximal inhibition (IC50) in the assay on platelet-rich plasma was 0.49 nM; in assay [1], 8 nM.
